Reference: US20050019372A1, “Modified-fat nutritional products useful preventing or treating obesity” (priority 2001, published 2005)
Like-named read-outs stand apart in the source and are kept apart here. Each block holds one compound with its values, some of them ahead of it.

Key:
3T3-L1 adipocytes [1] = assay: Partitioning of [1-14C]FFA between CO2 production and TG incorporation; assay type: cell-based; conditions: for Exogenous fatty acid converted into CO2 / Exogenous fatty acid converted into TG: 60 min, 1 mM fatty acid in 0.2 mM BSA, means ± S.E.M., n=3
Experimental: Partitioning of [1-^14C]FFA between CO2production7 and TG incorporation. 3T3-L1 cells were prepared in T25 culture flasks. […] The incubation was terminated after 60 min. ^14CO2 released from fatty acid oxidation was collected and quantified using a published protocol. The cellular lipids were extracted and separated by TLC. The TG fraction was scraped off and dissolved in Ecosin-A solution for scintillation counting. […] Cellular DNA was measured in parallel cultures.

3T3-L1 adipocytes [2] = assay: 13C-NMR incorporation of [1-13C]FFA into cellular TG; assay type: cell-based
Experimental: Incubation with [1-^13C]FFA. […] At termination, cells were washed three times with an ice-cold solution (pH 7.4) containing sucrose (250 mM), Tris (10 mM) and 2-mercaptoethanol (1 mM), scraped into the above solution containing additional EDTA (0.2 mM) and homogenized. Aliquots of the homogenate were stored at −80° C. for DNA and TG analysis. Aliquots for glycerol-3-phosphate dehydrogenase (G3PD) analysis were centrifuged at 44000 g for 20 min and the supernatants were stored at −80° C. until analysis. The homogenates were then extracted for lipids for NMR studies as described previously.
Quantification of ^13C label incorporation into cellular TG from the NMR peak intensity. The ^13C-NMR spectra were obtained at 125 MHz on a Bruker DMX-500 spectrometer with a 5-mm triple resonance probe (Bilerica, Mass., U.S.A.). Other details have been described in our previous reports. The absolute intensities of ^13C═O signals were measured by reference to an internal standard. […] For cells incubated with [1-^13C]octanoate, the signals from direct incorporation of [1-^13C]octanoate were less intense than the C═O signals from unlabelled TG (FIG. 1B; signals from unlabelled saturated acyl chains overlapped those of esterified [1-^13C]octanoate, but were generally 30-40% of their unsaturated counterparts in control cultures). Therefore, the signal intensity from direct incorporation of [1-^13C]octanoate was obtained by subtracting the background signal from control. This may not be completely accurate when octanoate incorporation is very limited.

3T3-L1 fat cells = assay: Basal lipolysis and turnover of esterified fatty acids (glycerol release, NMR, GLC); assay type: cell-based; conditions: for 8:0 acyl chains in cellular TG: means ± S.E.M.; for [1-13C]fatty acid remaining esterified in TG: NMR, ±S.E.M.
Experimental: Measurement of basal lipolysis. […] Control cultures were terminated at this time, and cells were homogenated for TG and DNA analysis. After aliquots were taken for these analyses, cellular lipids were extracted for NMR and GLC analysis. Parallel cultures were washed three times with PBS solution and incubated with serum-free DMEM containing 1% BSA, conditions that favour basal lipolysis. At the end of the incubation, media were aspirated and assayed for glycerol (Sigma procedure no. 337A [27]), and the cells were harvested for analysis as described above.
Quantification of ^13C label incorporation into cellular TG from the NMR peak intensity. The ^13C-NMR spectra were obtained at 125 MHz on a Bruker DMX-500 spectrometer with a 5-mm triple resonance probe (Bilerica, Mass., U.S.A.). Other details have been described in our previous reports. The absolute intensities of ^13C═O signals were measured by reference to an internal standard. […] Therefore, the signal intensity from direct incorporation of [1-^13C]octanoate was obtained by subtracting the background signal from control.
Methylation of TG and GLC analysis of fatty acyl composition. The lipid components of cell extracts were separated by TLC (hexane/ethyl ether/acetic acid, 70:30:1). Methylation was performed by incubation in BF3-methanol solution (14%, v/v, BF3 in methanol) at 60° C. for 30 min. The fatty acid methyl ester was extracted into a hexane solution. The hexane solution was dried with anhydrous sodium sulphate. To avoid the evaporation of methyl octanoate, the hexane solution was used directly for GLC study without further condensation. GLC analysis was performed on a Shimuzu 14A gas chromatograph with a Supelco SP™-2380 capillary column with an initial oven temperature of 150° C., final temperature of 240° C., heating rate of 4° C./min, injector temperature of 220° C. and detector temperature of 240° C. Carrier gas (He) was at 50 kPa, make-up carrier gas (He) at 100 kPa, hydrogen gas at 55 kPa and compressed air at 50 kPa. The sample was injected in 1-1.5 μl with splitting rate of 1:25.

[3] = 6 h intravenous infusion of octanoic acid, cited from earlier work
3T3-L1 cells = assay: Fatty acid induced differentiation (cellular TG content, G3PD activity), no MDI; assay type: cell-based; conditions: for G3PD / TG: basal medium with insulin 2.5 μg/ml, no MDI, means ± S.E.M., n=3; for Cell loss after extended fatty acid incubation: microscopy, corroborated by DNA analysis; for Time after incubation at which lipid droplets began to appear: undifferentiated cells, not treated with MDI
Experimental: Fatty acid induced differentiation. […] The 5:1 molar ratio of FFA/BSA promotes net transfer of FFA from BSA-binding sites to cells. No MDI treatment was applied to these cultures.
Measurement of total cellular DNA, TG and G3PD activity. […] G3PD was measured by following the disappearance of NADH during enzyme-catalysed dihydroxyacetone phosphate reduction under zero-order conditions.

3T3L1 fat cells = assay: TG storage and plasma membrane phospholipid fatty acid composition, oleate/linoleate with octanoate; assay type: cell-based
Experimental: This reduced the cellular TG storage from 41.5 to 27.0 μg/μgDNA. The fatty acid composition in the plasma membrane phospholipids (FIG. 15) was less drastically affected by exogenous fatty acids than that in the TG fraction (FIG. 14).

[4] = After 96 h incubation with DMEM (1% BSA)
[5] = After 96 h incubation with DMEM (1% BSA), n=3
[6] = Before 96 h incubation with DMEM (1% BSA)
[7] = Before 96 h incubation with DMEM (1% BSA), n=3
[8] = after 96-h incubation with DMEM, n=3
[9] = replacement of 20% oleate by octanoate

Compound: CCCCCCCC(=O)O [Octanoate, octanoate]
Actual amount of CO2 produced from octanoate relative to exogenous oleate (3T3-L1 adipocytes [1]; 8 vs 18 CO2 per acyl chain): about 3 fold
Exogenous fatty acid converted into CO2 (3T3-L1 adipocytes [1]): 8.4 ± 1.2 nmol/h per μg of DNA
Exogenous fatty acid converted into TG (3T3-L1 adipocytes [1]): 0.9 ± 0.1 nmol/h per μg of DNA
Peak intensity ratio TG(1,3)/TG(2) (3T3-L1 adipocytes [2]; 2.0 = random access to the three glycerol carbons): higher than 2.0
Octanoate share of total acyl chains stored, molar scale (3T3-L1 adipocytes [2]; converted to a molar scale): 20%
Amount partitioned into de novo synthesis of LCFA (3T3-L1 adipocytes [2]; detected by 13C-NMR): less than 16%
Saturated octanoate incorporation, share of total fatty acids stored (3T3-L1 adipocytes [2]; fat cells): about 10%
Time at which accumulation into TG reached a plateau (3T3-L1 adipocytes [2]; within a 24-h period): 7 h
Absolute amount of octanoate remaining in TG, of original amount (3T3-L1 fat cells; 96 h, total TG content doubled): about 20%
14:0 acyl chains in cellular TG (3T3-L1 fat cells; [4]): 3.88 ± 0.21%
14:1 acyl chains in cellular TG (3T3-L1 fat cells; [4]): 5.78 ± 0.11%
15:0 acyl chains in cellular TG (3T3-L1 fat cells; [4]): 1.63 ± 0.17%
15:1 acyl chains in cellular TG (3T3-L1 fat cells; [4]): 1.41 ± 0.09%
16:0 acyl chains in cellular TG (3T3-L1 fat cells; [4]): 24.45 ± 0.03%
16:1 acyl chains in cellular TG (3T3-L1 fat cells; [4]): 47.64 ± 0.34%
17:0 acyl chains in cellular TG (3T3-L1 fat cells; [4]): 0.85 ± 0.096%
17:1 acyl chains in cellular TG (3T3-L1 fat cells; [4]): 4.73 ± 0.12%
18:0 acyl chains in cellular TG (3T3-L1 fat cells; [4]): 0.51 ± 0.16%
18:1 n9 acyl chains in cellular TG (3T3-L1 fat cells; [4]): 6.2 ± 0.29%
18:1 n11 acyl chains in cellular TG (3T3-L1 fat cells; [4]): 1.95 ± 0.13%
8:0 acyl chains in cellular TG (3T3-L1 fat cells; [5]): 0.99 ± 0.05%
14:0 acyl chains in cellular TG (3T3-L1 fat cells; [6]): 3.74 ± 0.04%
14:1 acyl chains in cellular TG (3T3-L1 fat cells; [6]): 5.56 ± 0.29%
15:0 acyl chains in cellular TG (3T3-L1 fat cells; [6]): 1.43 ± 0.14%
15:1 acyl chains in cellular TG (3T3-L1 fat cells; [6]): 1.4 ± 0.14%
16:0 acyl chains in cellular TG (3T3-L1 fat cells; [6]): 24.62 ± 0.35%
16:1 acyl chains in cellular TG (3T3-L1 fat cells; [6]): 38.61 ± 0.2%
17:0 acyl chains in cellular TG (3T3-L1 fat cells; [6]): 0.9 ± 0.03%
17:1 acyl chains in cellular TG (3T3-L1 fat cells; [6]): 3.89 ± 0.1%
18:0 acyl chains in cellular TG (3T3-L1 fat cells; [6]): 0.49 ± 0.02%
18:1 n9 acyl chains in cellular TG (3T3-L1 fat cells; [6]): 6.69 ± 0.09%
18:1 n11 acyl chains in cellular TG (3T3-L1 fat cells; [6]): 2.34 ± 0.05%
8:0 acyl chains in cellular TG (3T3-L1 fat cells; [7]): 10.33 ± 0.3%
[1-13C]fatty acid remaining esterified in TG (3T3-L1 fat cells; [8]): About 21±1.2%
Proportion of octanoate in total stored fatty acids (3T3-L1 fat cells; [8]): about 1±0.1%
Octanoate incorporation, share of total acyl composition (3T3-L1 fat cells; before incubation with DMEM, n=3): 10±0.9%
Octanoate recovered as CO2 ([3]; fasted rats): ≤ 90%
Octanoate recovered as CO2 ([3]; fed rats): up to 82%
G3PD (3T3-L1 cells; Day 6): 0.09 ± 0.01 nmol/min per μg of DNA
TG (3T3-L1 cells; Day 6): 0.1 ± 0.02 μg/μg of DNA
G3PD (3T3-L1 cells; Day 9): 0.2 ± 0.01 nmol/min per μg of DNA
TG (3T3-L1 cells; Day 9): 0.6 ± 0.04 μg/μg of DNA
Cell loss after extended fatty acid incubation (3T3-L1 cells): less significant
Time after incubation at which lipid droplets began to appear (3T3-L1 cells): 6 days
Cellular TG storage (3T3L1 fat cells; oleate/linoleate, without or with 20% (wt %) of oleate replaced by octanoate): 27.0 μg/μgDNA
Decrease in MUFA in plasma membrane phospholipids (3T3L1 fat cells; [9]): ~15%
Increase in PUFA in plasma membrane phospholipids (3T3L1 fat cells; [9]): ~20%
Increase in SFA in plasma membrane phospholipids (3T3L1 fat cells; [9]): ~10%

Cell loss after extended fatty acid incubation (3T3-L1 cells): ~20%
Compound: CCCCCCCC/C=C\CCCCCCCC(=O)O [Oleate, oleate, reference compound]
Exogenous fatty acid converted into CO2 (3T3-L1 adipocytes [1]): 0.7 ± 0.1 nmol/h per μg of DNA
Exogenous fatty acid converted into TG (3T3-L1 adipocytes [1]): 7.6 ± 0.8 nmol/h per μg of DNA
14:0 acyl chains in cellular TG (3T3-L1 fat cells; [4]): 3.28 ± 0.02%
14:1 acyl chains in cellular TG (3T3-L1 fat cells; [4]): 5.48 ± 0.03%
15:0 acyl chains in cellular TG (3T3-L1 fat cells; [4]): 1.36 ± 0.02%
15:1 acyl chains in cellular TG (3T3-L1 fat cells; [4]): 1.24 ± 0.09%
16:0 acyl chains in cellular TG (3T3-L1 fat cells; [4]): 23.65 ± 0.03%
16:1 acyl chains in cellular TG (3T3-L1 fat cells; [4]): 38.65 ± 0.2%
17:0 acyl chains in cellular TG (3T3-L1 fat cells; [4]): 0.75 ± 0.03%
17:1 acyl chains in cellular TG (3T3-L1 fat cells; [4]): 3.98 ± 0.07%
18:0 acyl chains in cellular TG (3T3-L1 fat cells; [4]): 0.41 ± 0.02%
18:1 n9 acyl chains in cellular TG (3T3-L1 fat cells; [4]): 19.71 ± 0.02%
18:1 n11 acyl chains in cellular TG (3T3-L1 fat cells; [4]): 1.51 ± 0.12%
8:0 acyl chains in cellular TG (3T3-L1 fat cells; [5]): 0%
14:0 acyl chains in cellular TG (3T3-L1 fat cells; [6]): 2.84 ± 0.09%
14:1 acyl chains in cellular TG (3T3-L1 fat cells; [6]): 4.75 ± 0.08%
15:1 acyl chains in cellular TG (3T3-L1 fat cells; [6]): 0.81 ± 0.01%
16:0 acyl chains in cellular TG (3T3-L1 fat cells; [6]): 20.01 ± 0.36%
16:1 acyl chains in cellular TG (3T3-L1 fat cells; [6]): 27.34 ± 0.29%
17:0 acyl chains in cellular TG (3T3-L1 fat cells; [6]): 0.82 ± 0.03%
17:1 acyl chains in cellular TG (3T3-L1 fat cells; [6]): 3.31 ± 0.26%
18:0 acyl chains in cellular TG (3T3-L1 fat cells; [6]): 0.38 ± 0.04%
18:1 n9 acyl chains in cellular TG (3T3-L1 fat cells; [6]): 36.4 ± 0.4%
18:1 n11 acyl chains in cellular TG (3T3-L1 fat cells; [6]): 1.35 ± 0.07%
8:0 acyl chains in cellular TG (3T3-L1 fat cells; [7]): 0%
Decline of proportion of oleate in cellular TG (3T3-L1 fat cells; after 96-h incubation with DMEM, GLC): 50%
[1-13C]fatty acid remaining esterified in TG (3T3-L1 fat cells; [8]): over 99±3.3%
G3PD (3T3-L1 cells; Day 6): 0.45 ± 0.02 nmol/min per μg of DNA
TG (3T3-L1 cells; Day 6): 1.7 ± 0.2 μg/μg of DNA
G3PD (3T3-L1 cells; Day 9): 1.7 ± 0.1 nmol/min per μg of DNA
TG (3T3-L1 cells; Day 9): 5.1 ± 0.3 μg/μg of DNA
Oleate share of accumulated TG (3T3-L1 cells; oleate-treated cells): > 80%
Time after incubation at which lipid droplets began to appear (3T3-L1 cells): 3 days
